Structures can show the parent of a compound that is named as a salt.
Key:
Wistar rats = experiment: Acetic Acid-Induced Writhing in Rats Test; type: in vivo; conditions: Rattus norvegicus, ip, 0.5 ml 1% acetic acid i.p., compound given 15 min after acetic acid, writhes counted 60-75 min after acetic acid, dose reducing to less than 16 writhes in 50% of the animals, read-out: Writhing in Rats Test ED50 in mg/kg body weight
Description: The Acetic Acid-Induced Writhing in Rats Test is known to be a useful tool for the evaluation of the analgesic properties of given test compound (see in connection herewith Drug Research, 25, 1505-1509 (1975)).
Wistar rats weighing about 100g were used throughout. They were injected i.p. with 0.5 ml of a 1% aqueous solution of acetic acid and placed in individual glass containers for observation. […] 5 Min. later (15 min. after the acetic acid treatment) the test compound was administered. […] The lowest effective dose in 50% of the test animals (ED₅₀) was determined as that dose in mg/kg body weight capable of reducing the number of writhes during the 15 minutes observation period to less than 16 writhes in 50% of the tested animals.
Said ED₅₀ values for a number of compounds having the formula (I) and the pharmaceutically acceptable acid-addition salts thereof are gathered in Table 1.

Male Wistar rats = experiment: Tail Withdrawal Test; type: in vivo; conditions: Rattus norvegicus, iv, tail immersed in water at 55°C, dose suppressing the tail withdrawal response for more than 10 seconds in 50% of the animals, read-out: Tail Witdrawal Test ED50 in mg/kg body weight
Description: Male Wistar rats weighing 200g ± 5g were fasted overnight, water being available at libitum. Aqueous solutions, made isotonic with sodium chloride, of the test compounds at various concentrations were administered to the test animals intraveneously (i.v.). The thus treated rats were put into individual restraining cages. At various time periods after administration, the lower 5 cm portion of the tail was immersed into a cup filled with water at a constant temperature of 55°C. The typical tail withdrawal response was evaluated during a 10 sec. period after the immersion. ED₅₀ values in mg/kg body weight were determined as that dose of the test compound capable of suppressing in 50% of the tested animals the typical tail withdrawal response during a time period exceeding 10 seconds. Said ED₅₀ values for a number of compounds having the formula (I) and the pharma- ceutically acceptable acid-addition salts thereof are gathered in Table 1.

| Structure (SMILES) | ED50 (Wistar rats) | ED50 (Male Wistar rats) |
| --- | --- | --- |
| COc1ccc(/C=C/CN2CCN(c3ccc(Cl)nn3)CC2)cc1 [compound 14] | 40 mg/kg |  |
| C(=C\c1ccccc1)/CN1CCN(c2cccnn2)CC1 [compound 8] | 2.5 mg/kg |  |
| [O-][N+]1(C/C=C/c2ccccc2)CCN(c2ccc(Cl)nn2)CC1 [compound 38, (E)-3-chloro-6-[4-(3-phenyl-2-propenyl)-1-piperazinyl]pyridazine, 4-oxide] | 10 mg/kg | ≥ 20 mg/kg |
| Fc1ccc(/C=C/CN2CCN(c3cccnn3)CC2)cc1 [compound 11] | 40 mg/kg |  |
| Clc1ccc(N2CCN(C/C=C/c3cccs3)CC2)nn1 [compound 12] | 10 mg/kg |  |
| Clc1ccc(/C=C/CN2CCN(c3ccc(Cl)nn3)CC2)cc1 [compound 5, (E)-3-chloro-6-[4-[3-(4-chlorophenyl)-2-propenyl]-1-piperazinyl]pyridazine] | 40 mg/kg |  |
| Cl.Cl.Clc1ccc(N2CCN(C/C=C/c3ccccc3)CC2)nn1 [compound 37, (E)-3-chloro-6-[4-(3-phenyl-2-propenyl)-1-piperazinyl]pyridazine dihydrochloride] | 10 mg/kg | < 40 mg/kg |
| Fc1ccc(/C=C/CN2CCN(c3ccc(Cl)nn3)CC2)cc1 [compound 10] | 20 mg/kg |  |
| Brc1ccc(N2CCN(C/C=C/c3ccccc3)CC2)nn1 [compound 3, (E)-3-bromo-6-[4-(3-phenyl-2-propenyl)-1-piperazinyl]pyridazine] | 10 mg/kg |  |
| Clc1ccc(N2CCCN(C/C=C/c3ccccc3)CC2)nn1 [compound 7] | 20 mg/kg | 40 mg/kg |
| C(=C\c1ccccc1)/CN1CCCN(c2ccc(-c3ccccc3)nn2)CC1 [compound 19] | 10 mg/kg |  |
| COc1ccc(/C=C/CN2CCN(c3cccnn3)CC2)cc1 [compound 18] | 40 mg/kg |  |
| CC1CN(C/C=C/c2ccccc2)CCN1c1ccc(Cl)nn1 (centres unmarked) [compound 2, (E)-3-chloro-6-[2-methyl-4-(3-phenyl-2-propenyl)-1-piperazinyl]pyridazine monohydrochloride.hemihydrate] | 5 mg/kg | 10 mg/kg |
| COc1ccc(N2CCN(C/C=C/c3ccc(F)cc3)CC2)nn1 [compound 9] | 10 mg/kg |  |
| COc1ccc(N2CCN(C/C=C/c3ccccc3)CC2)nn1 [compound 4, (E)-3-methoxy-6-[4-(3-phenyl-2-propenyl)-1-piperazinyl]pyridazine] | 5 mg/kg | 40 mg/kg |
| Cc1ccc(/C=C/CN2CCN(c3ccc(Cl)nn3)CC2)cc1 [compound 13] | 40 mg/kg |  |
| Clc1ccc(N2CCN(C/C=C/c3ccccc3)CC2)nn1 [compound 1, (E)-3-chloro-6-[4-(3-phenyl-2-propenyl)-1-piperazinyl]pyridazine] | 5 mg/kg | 20 mg/kg |

From patent EP0211457A2, “Novel (4-substituted-piperazinyl)pyridazines” (JANSSEN PHARMACEUTICA N.V., priority 1985, dated 1987)
